{
  "source": "the supplement of paper PMC10307832",
  "assay_in_all_cases": "relative viability (nuclei count vs DMSO), 5 days (fraction); higher = more cells survive",
  "key": {"[1]": {"tested_on": "A-427", "outline": "(§1)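 Lung cancer cell lines in 1536-well plates got either a single drug or a fixed anchor-drug dose together with five library-drug doses (not always all listed) in √10 steps, by pin tool, on the day after seeding. Nuclei were counted after 5 days, and relative viability is the treated-to-vehicle ratio of nuclei counts. Values are medians of duplicate plates.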"}, "[2]": {"tested_on": "COR-L 105", "outline": "as §1"}, "[3]": {"tested_on": "EKVX", "outline": "as §1"}, "[4]": {"tested_on": "EMC-BAC-2", "outline": "as §1"}, "[5]": {"tested_on": "H3255", "outline": "as §1"}, "[6]": {"tested_on": "HCC-366", "outline": "as §1"}, "[7]": {"tested_on": "LK-2", "outline": "as §1"}, "[8]": {"tested_on": "LOU-NH91", "outline": "as §1"}, "[9]": {"tested_on": "NCI-H1563", "outline": "as §1"}, "[10]": {"tested_on": "NCI-H1666", "outline": "as §1"}, "[11]": {"tested_on": "NCI-H1734", "outline": "as §1"}, "[12]": {"tested_on": "NCI-H1755", "outline": "as §1"}, "[13]": {"tested_on": "NCI-H1975", "outline": "as §1"}, "[14]": {"tested_on": "NCI-H23", "outline": "as §1"}, "[15]": {"tested_on": "NCI-H441", "outline": "as §1"}, "[16]": {"tested_on": "NCI-H520", "outline": "as §1"}, "[17]": {"tested_on": "NCI-H596", "outline": "as §1"}, "[18]": {"tested_on": "PC-3 [JPC-3]", "outline": "as §1"}, "[19]": {"tested_on": "SK-MES-1", "outline": "as §1"}},
  "data": [
    {"smiles": "Cc1sc2c(c1C)C(c1ccc(Cl)cc1)=N[C@@H](CC(=O)OC(C)(C)C)c1nnc(C)n1-2", "note": "[JQ1] + C[C@]1(O)C[C@@H](c2nc(-c3ccc4ccc(-c5ccccc5)nc4c3)c3c(N)nccn32)C1 [Linsitinib] (partner 1 µM)", "values": [
      {"measurement": "relative viability", "setting": "[1]; first compound 0.04 µM", "result": 1.19},
      {"measurement": "relative viability", "setting": "[1]; first compound 0.1265 µM", "result": 1.04},
      {"measurement": "relative viability", "setting": "[1]; first compound 0.4 µM", "result": 1.14},
      {"measurement": "relative viability", "setting": "[1]; first compound 1.265 µM", "result": 1.06},
      {"measurement": "relative viability", "setting": "[1]; first compound 4 µM", "result": 0.721},
      {"measurement": "relative viability", "setting": "[2]; first compound 0.04 µM", "result": 0.868},
      {"measurement": "relative viability", "setting": "[2]; first compound 0.1265 µM", "result": 0.579},
      {"measurement": "relative viability", "setting": "[2]; first compound 0.4 µM", "result": 0.349},
      {"measurement": "relative viability", "setting": "[2]; first compound 1.265 µM", "result": 0.299},
      {"measurement": "relative viability", "setting": "[2]; first compound 4 µM", "result": 0.319},
      {"measurement": "relative viability", "setting": "[3]; first compound 0.04 µM", "result": 0.935},
      {"measurement": "relative viability", "setting": "[3]; first compound 0.1265 µM", "result": 0.813},
      {"measurement": "relative viability", "setting": "[3]; first compound 0.4 µM", "result": 1.01},
      {"measurement": "relative viability", "setting": "[3]; first compound 1.265 µM", "result": 0.72},
      {"measurement": "relative viability", "setting": "[3]; first compound 4 µM", "result": 0.461},
      {"measurement": "relative viability", "setting": "[4]; first compound 0.04 µM", "result": 0.815},
      {"measurement": "relative viability", "setting": "[4]; first compound 0.1265 µM", "result": 0.812},
      {"measurement": "relative viability", "setting": "[4]; first compound 0.4 µM", "result": 0.659},
      {"measurement": "relative viability", "setting": "[4]; first compound 1.265 µM", "result": 0.444},
      {"measurement": "relative viability", "setting": "[4]; first compound 4 µM", "result": 0.47},
      {"measurement": "relative viability", "setting": "[5]; first compound 0.04 µM", "result": 0.913},
      {"measurement": "relative viability", "setting": "[5]; first compound 0.1265 µM", "result": 0.728},
      {"measurement": "relative viability", "setting": "[5]; first compound 0.4 µM", "result": 0.881},
      {"measurement": "relative viability", "setting": "[5]; first compound 1.265 µM", "result": 0.402},
      {"measurement": "relative viability", "setting": "[5]; first compound 4 µM", "result": 0.328},
      {"measurement": "relative viability", "setting": "[6]; first compound 0.04 µM", "result": 0.6},
      {"measurement": "relative viability", "setting": "[6]; first compound 0.4 µM", "result": 0.639},
      {"measurement": "relative viability", "setting": "[6]; first compound 1.265 µM", "result": 0.326},
      {"measurement": "relative viability", "setting": "[6]; first compound 4 µM", "result": 0.193},
      {"measurement": "relative viability", "setting": "[7]; first compound 0.04 µM", "result": 0.393},
      {"measurement": "relative viability", "setting": "[7]; first compound 0.1265 µM", "result": 0.662},
      {"measurement": "relative viability", "setting": "[7]; first compound 0.4 µM", "result": 0.233},
      {"measurement": "relative viability", "setting": "[7]; first compound 1.265 µM", "result": 0.176},
      {"measurement": "relative viability", "setting": "[7]; first compound 4 µM", "result": 0.109},
      {"measurement": "relative viability", "setting": "[8]; first compound 0.04 µM", "result": 0.905},
      {"measurement": "relative viability", "setting": "[8]; first compound 0.1265 µM", "result": 0.777},
      {"measurement": "relative viability", "setting": "[8]; first compound 0.4 µM", "result": 0.579},
      {"measurement": "relative viability", "setting": "[8]; first compound 1.265 µM", "result": 0.474},
      {"measurement": "relative viability", "setting": "[8]; first compound 4 µM", "result": 0.489},
      {"measurement": "relative viability", "setting": "[9]; first compound 0.04 µM", "result": 1.28},
      {"measurement": "relative viability", "setting": "[9]; first compound 0.1265 µM", "result": 1.1},
      {"measurement": "relative viability", "setting": "[9]; first compound 0.4 µM", "result": 0.976},
      {"measurement": "relative viability", "setting": "[9]; first compound 1.265 µM", "result": 0.722},
      {"measurement": "relative viability", "setting": "[9]; first compound 4 µM", "result": 0.646},
      {"measurement": "relative viability", "setting": "[10]; first compound 0.04 µM", "result": 0.811},
      {"measurement": "relative viability", "setting": "[10]; first compound 0.1265 µM", "result": 0.844},
      {"measurement": "relative viability", "setting": "[10]; first compound 0.4 µM", "result": 0.842},
      {"measurement": "relative viability", "setting": "[10]; first compound 1.265 µM", "result": 0.475},
      {"measurement": "relative viability", "setting": "[10]; first compound 4 µM", "result": 0.484},
      {"measurement": "relative viability", "setting": "[11]; first compound 0.04 µM", "result": 0.831},
      {"measurement": "relative viability", "setting": "[11]; first compound 0.1265 µM", "result": 0.823},
      {"measurement": "relative viability", "setting": "[11]; first compound 0.4 µM", "result": 0.879},
      {"measurement": "relative viability", "setting": "[11]; first compound 1.265 µM", "result": 0.63},
      {"measurement": "relative viability", "setting": "[11]; first compound 4 µM", "result": 0.418},
      {"measurement": "relative viability", "setting": "[12]; first compound 0.04 µM", "result": 0.985},
      {"measurement": "relative viability", "setting": "[12]; first compound 0.1265 µM", "result": 0.987},
      {"measurement": "relative viability", "setting": "[12]; first compound 0.4 µM", "result": 1.01},
      {"measurement": "relative viability", "setting": "[12]; first compound 1.265 µM", "result": 0.763},
      {"measurement": "relative viability", "setting": "[12]; first compound 4 µM", "result": 0.709},
      {"measurement": "relative viability", "setting": "[13]; first compound 0.04 µM", "result": 0.864},
      {"measurement": "relative viability", "setting": "[13]; first compound 0.1265 µM", "result": 0.835},
      {"measurement": "relative viability", "setting": "[13]; first compound 0.4 µM", "result": 0.723},
      {"measurement": "relative viability", "setting": "[13]; first compound 1.265 µM", "result": 0.434},
      {"measurement": "relative viability", "setting": "[13]; first compound 4 µM", "result": 0.379},
      {"measurement": "relative viability", "setting": "[14]; first compound 0.04 µM", "result": 0.513},
      {"measurement": "relative viability", "setting": "[14]; first compound 0.1265 µM", "result": 0.555},
      {"measurement": "relative viability", "setting": "[14]; first compound 0.4 µM", "result": 0.385},
      {"measurement": "relative viability", "setting": "[14]; first compound 1.265 µM", "result": 0.339},
      {"measurement": "relative viability", "setting": "[14]; first compound 4 µM", "result": 0.288},
      {"measurement": "relative viability", "setting": "[15]; first compound 0.04 µM", "result": 0.774},
      {"measurement": "relative viability", "setting": "[15]; first compound 0.1265 µM", "result": 0.484},
      {"measurement": "relative viability", "setting": "[15]; first compound 0.4 µM", "result": 0.579},
      {"measurement": "relative viability", "setting": "[15]; first compound 1.265 µM", "result": 0.386},
      {"measurement": "relative viability", "setting": "[15]; first compound 4 µM", "result": 0.306},
      {"measurement": "relative viability", "setting": "[16]; first compound 0.04 µM", "result": 0.962},
      {"measurement": "relative viability", "setting": "[16]; first compound 0.1265 µM", "result": 1.26},
      {"measurement": "relative viability", "setting": "[16]; first compound 0.4 µM", "result": 0.821},
      {"measurement": "relative viability", "setting": "[16]; first compound 1.265 µM", "result": 0.435},
      {"measurement": "relative viability", "setting": "[16]; first compound 4 µM", "result": 0.287},
      {"measurement": "relative viability", "setting": "[17]; first compound 0.04 µM", "result": 1.22},
      {"measurement": "relative viability", "setting": "[17]; first compound 0.1265 µM", "result": 1.03},
      {"measurement": "relative viability", "setting": "[17]; first compound 0.4 µM", "result": 0.587},
      {"measurement": "relative viability", "setting": "[17]; first compound 1.265 µM", "result": 0.418},
      {"measurement": "relative viability", "setting": "[17]; first compound 4 µM", "result": 0.361},
      {"measurement": "relative viability", "setting": "[18]; first compound 0.04 µM", "result": 0.942},
      {"measurement": "relative viability", "setting": "[18]; first compound 0.1265 µM", "result": 0.998},
      {"measurement": "relative viability", "setting": "[18]; first compound 0.4 µM", "result": 1.06},
      {"measurement": "relative viability", "setting": "[18]; first compound 1.265 µM", "result": 0.79},
      {"measurement": "relative viability", "setting": "[18]; first compound 4 µM", "result": 0.666},
      {"measurement": "relative viability", "setting": "[19]; first compound 0.04 µM", "result": 1.02},
      {"measurement": "relative viability", "setting": "[19]; first compound 0.1265 µM", "result": 0.752},
      {"measurement": "relative viability", "setting": "[19]; first compound 0.4 µM", "result": 0.862},
      {"measurement": "relative viability", "setting": "[19]; first compound 1.265 µM", "result": 0.332},
      {"measurement": "relative viability", "setting": "[19]; first compound 4 µM", "result": 0.374}
    ]}
  ]
}
